From patent US20080214563A1, “Benzimidazole Thiophene Compounds As Plk Modulators” (priority 2005, published 2008) come the findings set out here.

Some results are limits rather than exact numbers.

In series [1] the test system is P388. Kind of series: Cell-Titer Glo Cell Growth Inhibition Assay, P388. It counts as cell-based, murine. The conditions noted are these: Mus musculus, CellTiter-Glo, 72 h, read-out: CTG P388 IC50. How it is done: (§1) A549-L (human lung), BT474 (human breast), Colo 205 (human colon), H1299 (human lung), Hela (human cervix), HCT-116 (human colon), HN5 (human head and neck), HT29 (human colon), LNCap (human prostate), MCF7 (human breast), MDA-MB468 (human breast), MX-1 (human breast), RPMI 8226 (human peripheral blood), SKOV3 (human ovary) and P388 (murine leukemia) cell lines were cultured in RPMI1640 containing 10% fetal bovine serum at 37° C. in a 5% CO2 incubator. Cell lines were split into T75 flasks (Falcon #353136) two to three days prior to assay set up at density which yields approximately 70-80% confluency at time of harvest for assay. Cells were harvested using 0.25% trypsin with EDTA (Glibco/Invitrogen #25200-056), Cell counts were performed on cell suspensions using Trypan Blue exclusion staining, cells were then plated in 105 uL of culture media per well at the following densities in 96 well Costar #3916 black flat bottom plates: All human cell lines were plated at 500 cells/well. P388 were plated at 250 cells/well. All plates were placed at 5% CO2 37° C. overnight and then test compounds were added the following day. One plate of each cell type is treated with CellTiter-Glo (Promega #G7573) for a day 0 proliferation measurement and read as described below. The test compounds are prepared in clear U bottom polypropylene 96 well plates (Falcon #35-1190 with consecutive two fold dilutions. 9 uL of these dilutions was added into each well of the cell plates. The final concentration of DMSO in all wells is 0.15%. Cells were incubated at 37° C., 5% CO2 for 72 h. Following 72 h of incubation with compounds each plate was developed and read. CellTiter-Glo reagent was added to assay plates using a volume equivalent to the cell culture volume in the wells. Plates were shaken for approximately two minutes and incubated at room temperature for approximately 15 min and the chemiluminescent signal is read on the Victor V or Envison 2100 reader. […] Concentration of compound that inhibited 50% of cell growth (IC50) was analysis by 4 or 6 parameter fit of data using XLfit, value of no cell addition was subtracted from all samples for background.

Series [2] concerns HT29. Put plainly: Cell-Titer Glo Cell Growth Inhibition Assay, HT29. It counts as cell-based. To be noted: Homo sapiens, HT-29, CellTiter-Glo, 72 h, read-out: CTG HT29 IC50. As for the experimental part: as §1
The test system of series [3] is HCT116. Put plainly: Methylene Blue Cell Growth Inhibition Assay, HCT116. It counts as cell-based. To be noted: Homo sapiens, HCT-116, 72 h, read-out: MEB HCT116 IC50. As for the experimental part: Normal human foreskin fibroblasts (HFF), human colon (HCT116, RKO), lung (H460, A549) and breast (MCF7) tumor cell lines were cultured in high glucose DMEM (Life Technologies) containing 10% fetal bovine serum (FBS) at 37° C. in a humidified 5% CO2, 95% air incubator. Cells were harvested using trypsin/EDTA, counted using a haemocytometer, and plated in 100 μL of culture media per well, at the following densities, in a 96-well tissue culture plate (Falcon 3075): HFF 5,000 cells/well, HCT116 3,000 cells/well, RKO 2,500 cells/well, H460 2,500 cells/well, A549 5,000 cells/well, MCF7 4,000 cells/well. The next day, compounds were diluted in low glucose DMEM containing 100 μg/mL gentamicin, at twice the final required concentration, from 10 mM stock solutions in DMSO. 100 μL/well of these dilutions were added to the 100 μL of media currently in the assay plates. Medium containing 0.6% DMSO was added to control wells. The final concentration of DMSO in all wells was 0.3%. Cells were incubated at 37° C., 5% CO2 for 72 h. Medium was removed by aspiration. Cell biomass was estimated by staining cells with 80 μL per well methylene blue (Sigma M9140, 0.5% in 50:50 ethanol:water), and incubation at room temperature for 30-60 min. Stain was removed by aspiration and the plates rinsed by immersion in water, then air-dried. To release stain from the cells, 100 μL of solubilization solution was added (1% N-lauroyl sarcosine, Sodium salt, Sigma L5125, in PBS), and plates were shaken gently for about 30 min. Optical density at 620 nm was measured on a microplate reader. Percent inhibition of cell growth was calculated relative to vehicle treated control wells. Concentration of compound that inhibits 50% of cell growth (IC50) was interpolated using nonlinear regression (Levenberg-Marquardt) and the equation, y=Vmax*(1−(x/(K+x)))+Y2, where “K” was equal to the IC50.

A short description of series [4]: Intravenous pharmacokinetics in CD-1 mouse. It counts as in vivo. To be noted: plasma, iv bolus, male CD-1 mouse, dose 1.9-7.4 mg/kg per compound (Table 3); for clearance: read-out: Plasma CL.
In series [5] the test system is A549-L. Put plainly: Cell-Titer Glo Cell Growth Inhibition Assay, A549-L. It counts as cell-based. To be noted: Homo sapiens, CellTiter-Glo, 72 h, read-out: CTG A549-L IC50. How it is done:
as §1

In series [6] the test system is MX-1. Kind of series: Cell-Titer Glo Cell Growth Inhibition Assay, MX-1. It counts as cell-based. To be noted: Homo sapiens, MX1, CellTiter-Glo, 72 h, read-out: CTG MX-1 IC50. As for the experimental part:
as §1

For `C[C@@H](Oc1cc(-n2cnc3cc(-c4cnn(C)c4)ccc32)sc1C(N)=O)c1ccccc1Cl` [Example 9, 3-{[(1R)-1-(2-Chlorophenyl)ethyl]oxy}-5-[5-(1-methyl-1H-pyrazol-4-yl)-1H-benzimidazol-1-yl]-2-thiophenecarboxamide], the IC50 in series [1] was 100 to 1000 nM; in series [2], less than 100 nM; in series [3], less than 100 nM; in series [5] it was less than 100 nM; in series [6], less than 100 nM. In series [4], this molecule had an AUC(0-t) of 5760 ng·h/mL. For the same molecule, the clearance in series [4] worked out at 12.1 mL/min/kg.

`C[C@@H](Oc1cc(-n2cnc3cc(-c4ccc(N5CCNCC5)nc4)ccc32)sc1C(N)=O)c1ccccc1Cl` [Example 7, 3-{[(1R)-1-(2-Chlorophenyl)ethyl]oxy}-5-{5-[6-(1-piperazinyl)-3-pyridinyl]-1H-benzimidazol-1-yl}-2-thiophenecarboxamide]: the IC50 in series [1] was less than 100 nM; in series [2] it was less than 100 nM; in series [3], 100 to 1000 nM; in series [5], less than 100 nM; in series [6], 100 to 1000 nM. Moreover, the AUC(0-t) in series [4] was 3740 ng·h/mL. In series [4], the clearance was 33 mL/min/kg.

On to `C[C@@H](Oc1cc(-n2cnc3cc(-c4ccc(N5CCNCC5)nc4)ccc32)sc1C(N)=O)c1ccccc1C(F)(F)F` [Example 1, 5-{5-[6-(1-piperazinyl)-3-pyridinyl]-1H-benzimidazol-1-yl}-3-({(1R)-1-[2-(trifluoromethyl)phenyl]ethyl}oxy)-2-thiophenecarboxamide], for which the IC50 in series [1] is 100 to 1000 nM; in series [2] it was less than 100 nM; in series [3] it was 100 to 1000 nM; in series [5], 100 to 1000 nM; in series [6], less than 100 nM. In series [4], this molecule showed an AUC(0-t) of 3420 ng·h/mL. Moreover, the clearance in series [4] was found to be 23.5 mL/min/kg.
